Target: T1, human CB2 receptor (Homo sapiens, UniProt P34972)
T1 construct: beta-galactosidase fragment (the cell line's name says 'bgal'; own knowledge: PathHunter enzyme-fragment-complementation lines carry a small beta-gal fragment fused to the receptor's C-terminus); host or cells: CHO-K1 (CHOK1hCB2_bgal), membranes
Test: [3H]CP55940 displacement assay
Type: binding
Details: for pKi ± SEM: [3H]CP55940 (~1.5 nM) displacement, CHOK1hCB2_bgal membranes, 25 °C, 2 h, three separate experiments in duplicate; for % displacement of the radioligand: 10 μM of the compound, [3H]CP55940, CHOK1hCB2_bgal membranes
Method: CHOK1hCB2_bgal cells (DiscoverRx, Fremont, CA, USA) were cultured in Dulbecco’s Modified Eagle’s Medium/Nutrient Mixture F-12 Ham supplemented with 10% fetal calf serum, 1 mM glutamine, 50 µg/mL penicillin, 50 µg/mL streptomycin, […] hygromycin and 800 µg/mL geneticin in a humidified atmosphere at 37 °C and 5% CO2. Cells were subcultured twice a week at a ratio of 1:20 on 10-cm diameter plates by trypsinization. For membrane preparation, the cells were subcultured with a ratio of 1:10 and transferred to 15-cm diameter plates. The cells were collected by scraping in 5 mL phosphate-buffered saline (PBS) and centrifuged at 1000 g for 5 min. Pellets derived from 30 plates were combined and resuspended in 20 mL cold Tris–HCl, MgCl2 buffer (50 mM Tris–HCl (pH 7.4), 5 mM MgCl2). The cell suspension was homogenized using an UltraTurrax homogenizer (Heidolph Instruments Schwabach, Germany). Membranes and cytosolic fractions were separated by centrifugation in a Beckman Optima LE-80 K ultracentrifuge (Beckman Coulter Inc., Fullerton, CA, USA) at 100,000 g for 20 min at 4 °C. The supernatant was discarded. The pellet was resuspended in 10 mL cold Tris–HCl, MgCl2 buffer and homogenization and centrifugation steps were repeated. The membranes were resuspended in 10 mL cold Tris–HCl, MgCl2 buffer. Aliquots of 50 µL were stored at -80 °C until further use. The protein concentration was determined using the Pierce™ BCA Protein Assay Kit (ThermoFisher Scientific, Waltham, MA, USA).
At first, all compounds were tested at a final concentration of 10 µM. […] Six different concentrations of the compounds were added by an HP D300 digital dispenser (Tecan Group Ltd, Männedorf, Switzerland). In order to determine the total binding, a control without test compound was included. Nonspecific binding was determined in the presence of 10 µM AM630. The total assay volume was 100 µL. The final concentration of DMSO was ≤ 0.25%. The incubation was terminated by rapid vacuum filtration through GF/C 96-well filter plates (PerkinElmer, Waltham, MA), to separate the bound and free radioligand, using a PerkinElmer Filtermate-harvester (PerkinElmer, Groningen, The Netherlands). Filters were subsequently washed […] with ice-cold assay buffer. The filter-bound radioactivity was determined by scintillation spectrometry using a Microbeta2® 2450 microplate counter (PerkinElmer, Boston, MA), after addition of 25 μl MicroScint 20 (PerkinElmer, Groningen, The Netherlands) and 3 h incubation.
All experimental data were analyzed using GraphPad Prism 7 [36]. The data were normalized to percentage specific radioligand binding, where the total binding is 100% and nonspecific binding is 0%. […] All data were obtained from three separate experiments performed in duplicate.

T1 sequence (P34972 whole entry, the tested form may be a part): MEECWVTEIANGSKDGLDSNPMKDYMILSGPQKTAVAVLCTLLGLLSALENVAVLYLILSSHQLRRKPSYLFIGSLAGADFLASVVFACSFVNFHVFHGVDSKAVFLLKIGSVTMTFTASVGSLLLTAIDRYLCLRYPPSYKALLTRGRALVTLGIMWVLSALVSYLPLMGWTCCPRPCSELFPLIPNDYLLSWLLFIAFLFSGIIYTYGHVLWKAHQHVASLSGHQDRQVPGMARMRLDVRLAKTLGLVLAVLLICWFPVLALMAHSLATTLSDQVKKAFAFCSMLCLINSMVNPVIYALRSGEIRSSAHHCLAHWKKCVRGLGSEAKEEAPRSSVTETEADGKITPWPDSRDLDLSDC

Structure (SMILES): CCc1ccc(C(=O)NC(C)C23CC4CC(CC(C4)C2)C3)cc1S(=O)(=O)N1CCOCC1 (centres unmarked) [Z336532434]
- pKi ± SEM: 7.67 ± 0.17

Structure (SMILES): CCN(CC)c1ccc(S(=O)(=O)N2CCOCC2)cc1NS(=O)(=O)CC12CCC(CC1=O)C2(C)C (centres unmarked) [Z55473655]
- % displacement of the radioligand: 7%

Structure (SMILES): CCCCn1nc(C(=O)NC2CC3CCC2(C)C3(C)C)c2ccccc2c1=O (centres unmarked) [Z28357657]
- pKi ± SEM: 6.81 ± 0.29

Structure (SMILES): Cc1nn(-c2ccccc2)c2sc(C(=O)NC34CC5CC(CC(C5)C3)C4)cc12 [Z27687279]
- % displacement of the radioligand: 38%

Structure (SMILES): COc1ccc(C=C(C(=O)NC2CCCCC2)C(=O)NC2CCCCC2)cc1OC [Z46091805]
- % displacement of the radioligand: 38%

Structure (SMILES): CC1(CN2CCOCC2)CCN(CC(=O)N2CCc3sccc3C2)CC1 [Z1523102560]
- % displacement of the radioligand: 18%

Structure (SMILES): CCOC(=O)c1c(NC(=O)CC23CC4CC(CC(C4)C2)C3)sc2c1CCCC2 [Z27680708]
- pKi ± SEM: 7.46 ± 0.32

Structure (SMILES): COc1ccc2c(c1)c(C(=O)N(C)CC(C)OC)c(C)n2C1CC1 (centres unmarked) [Z2094674960]
- % displacement of the radioligand: 0%

Structure (SMILES): Cc1ccc(C(=O)NC23CC4CC(CC(C4)C2)C3)cc1S(=O)(=O)N1CCCCC1 [Z27687312]
- pKi ± SEM: 7.22 ± 0.46

Structure (SMILES): CC1(C)C2CCC1(C)C(NC(=O)C1CCN(S(=O)(=O)c3ccc(F)c(F)c3)CC1)C2 (centres unmarked) [Z28357392]
- % displacement of the radioligand: 26%

Structure (SMILES): CCC(NC(=O)c1cccc(S(=O)(=O)N2CCOCC2)c1)C12CC3CC(CC(C3)C1)C2 (centres unmarked) [Z28609248]
- % displacement of the radioligand: 16%

Structure (SMILES): CCC(C)(C)C1CCC(NC(=O)c2cc(S(=O)(=O)N3CCOCC3)ccc2C)CC1 (centres unmarked) [Z91179667]
- % displacement of the radioligand: 29%

Structure (SMILES): Cc1ccc(NC(=O)C2CCC(C(C)(C)C)CC2)cc1S(=O)(=O)N1CCOCC1 (centres unmarked) [Z26476746]
- pKi ± SEM: 6.54 ± 0.14

Structure (SMILES): Cc1ccc(C(=O)NC2CCCC(C)C2C)cc1S(=O)(=O)N1CCOCC1 (centres unmarked) [Z32934509]
- pKi ± SEM: 6.47 ± 0.02

Structure (SMILES): CC1(C)C2CC=C(/C=N/NC(=O)CCc3ccc(S(=O)(=O)N4CCOCC4)cc3)C1C2 (centres unmarked) [Z44867007]
- % displacement of the radioligand: 0%

Structure (SMILES): CCn1cc(C(=O)NCC2(N3CCOCC3)CCCCC2)c(=O)c2ccc(C)nc21 [Z27019562]
- % displacement of the radioligand: 30%

Structure (SMILES): CC(C)C(NC(=O)CN1CCN(c2nccn2C)CC1)c1ccc2c(c1)OCCCO2 (centres unmarked) [Z1317886912]
- % displacement of the radioligand: 3%

Reference: article PMC6836644, “A multiple classifier system identifies novel cannabinoid CB2 receptor ligands” (Journal of Cheminformatics, 2019)
